Active and inactive are the calls of the source.
How the values were obtained:
[1] = Counterscreen for […] of the human trace amine associated receptor 1 (TAAR1): Fluorescence-based cell-based high throughput dose response assay to identify nonselective Ga16 agonists.; assay type: functional
[2] = Counterscreen for antagonists of the human trace amine associated receptor 1 (hTAAR1): Fluorescence-based cell-based high throughput dose response assay to identify nonselective Ga16 antagonists.; assay type: functional
[3] = HEK293T cell cytotoxicity, dose response, cytotoxicity control for HIV Vif inhibitor project, cherry-picks (AID 652208); assay type: functional, cell-based
Vero = assay: Vero cell toxicity, dose response, cytotoxicity control, plate reader, cherry-pick samples (AID 687020); assay type: functional, cell-based; conditions: Chlorocebus sabaeus
[4] = HEK293T cytotoxicity, dose response, cytotoxicity control for miR-122 modulator project, cell-based, inhibitor set, cherry-pick, set 2 (AID 720697); assay type: functional
[5] = biological target: Photoreceptor-specific nuclear receptor (Homo sapiens, UniProt Q9Y5X4); assay type: functional, cell-based;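 also: CHO-S cells with Gal4-NCOR and VP16-NR2E3 two-hybrid luciferase reporter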
cells [6] = assay type: functional, cell-based
[7] = biological target: Nuclear receptor subfamily 0 group B member 1 (Homo sapiens, UniProt P51843); assay type: functional, cell-based;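 also: HEK293T cells transfected with SF-1 and DAX-1 plus StAR promoter luciferase reporter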
[8] = biological target: T1, Oxysterols receptor LXR-beta (Homo sapiens, UniProt P55055); assay type: functional, cell-based;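 also: Cell-based luminescence dose-response assay of agonist activity at LXR, run as a confirmatory counterscreen to a daf-12 agonist screen; HEK293 cells with Gal4-LXR fusion and GAL4-driven luciferase reporter; agonist potency from rising luciferase signal of a Gal4-LXR reporter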
T1 sequence (P55055 whole entry): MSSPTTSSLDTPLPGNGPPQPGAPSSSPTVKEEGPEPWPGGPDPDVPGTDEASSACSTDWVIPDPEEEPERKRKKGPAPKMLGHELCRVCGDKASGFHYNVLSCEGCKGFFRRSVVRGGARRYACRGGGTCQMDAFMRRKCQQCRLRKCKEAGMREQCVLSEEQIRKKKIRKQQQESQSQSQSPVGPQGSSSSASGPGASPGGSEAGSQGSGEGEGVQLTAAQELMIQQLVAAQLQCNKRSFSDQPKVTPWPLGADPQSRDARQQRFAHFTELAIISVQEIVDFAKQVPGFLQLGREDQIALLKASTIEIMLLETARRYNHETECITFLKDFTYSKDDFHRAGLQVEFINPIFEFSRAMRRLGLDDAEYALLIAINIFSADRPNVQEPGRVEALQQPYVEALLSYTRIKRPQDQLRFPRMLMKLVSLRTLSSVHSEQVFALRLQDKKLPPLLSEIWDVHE

cells [9] = assay: cells
Cryptococcus neoformans = assay: PubChem AID 686997; assay type: functional, organism-based
[10] = biological target: T2, Voltage-gated N-type calcium channel alpha-1B subunit/Amyloid beta A4 precursor protein-binding family A member 1 (Homo sapiens, UniProt Q00975+Q02410); assay type: protein assay
[11] = biological target: T2, Voltage-gated N-type calcium channel alpha-1B subunit/Amyloid beta A4 precursor protein-binding family A member 1; assay type: protein assay; remark: listed apart in the source
Beta-lactamase [12] = biological target: Beta-lactamase (Pseudomonas aeruginosa, UniProt Q79MP6);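 also: biochemical dose-response test of metallo-beta-lactamase enzyme inhibition, read out by epi-absorbance; purified recombinant IMP-1 metallo-beta-lactamase with nitrocefin as substrate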
Beta-lactamase [13] = biological target: Beta-lactamase (Salmonella choleraesuis (strain SC-B67), UniProt Q5J463)
ORF 73 = ORF 73 (Human herpesvirus 8, UniProt O40947); assay: inhibitors of C-LANA binding to LBS DNA, dose response, biochemical, fluorescence polarization, cherry-picked samples (AID 504725); parameters: species or system Human gammaherpesvirus 8;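 also: fluorescence polarization of a labeled DNA duplex reporting LANA DNA binding; potency is for inhibitors that block LANA binding to the DNA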
Insulin-degrading enzyme [14] = biological target: T3, Insulin-degrading enzyme (Homo sapiens, UniProt P14735); assay: activators of recombinant IDE enzyme, dose response, counter-screen for IDE activator project, biochemical, fluorescence polarization (AID 588681)
T3 sequence (P14735 whole entry): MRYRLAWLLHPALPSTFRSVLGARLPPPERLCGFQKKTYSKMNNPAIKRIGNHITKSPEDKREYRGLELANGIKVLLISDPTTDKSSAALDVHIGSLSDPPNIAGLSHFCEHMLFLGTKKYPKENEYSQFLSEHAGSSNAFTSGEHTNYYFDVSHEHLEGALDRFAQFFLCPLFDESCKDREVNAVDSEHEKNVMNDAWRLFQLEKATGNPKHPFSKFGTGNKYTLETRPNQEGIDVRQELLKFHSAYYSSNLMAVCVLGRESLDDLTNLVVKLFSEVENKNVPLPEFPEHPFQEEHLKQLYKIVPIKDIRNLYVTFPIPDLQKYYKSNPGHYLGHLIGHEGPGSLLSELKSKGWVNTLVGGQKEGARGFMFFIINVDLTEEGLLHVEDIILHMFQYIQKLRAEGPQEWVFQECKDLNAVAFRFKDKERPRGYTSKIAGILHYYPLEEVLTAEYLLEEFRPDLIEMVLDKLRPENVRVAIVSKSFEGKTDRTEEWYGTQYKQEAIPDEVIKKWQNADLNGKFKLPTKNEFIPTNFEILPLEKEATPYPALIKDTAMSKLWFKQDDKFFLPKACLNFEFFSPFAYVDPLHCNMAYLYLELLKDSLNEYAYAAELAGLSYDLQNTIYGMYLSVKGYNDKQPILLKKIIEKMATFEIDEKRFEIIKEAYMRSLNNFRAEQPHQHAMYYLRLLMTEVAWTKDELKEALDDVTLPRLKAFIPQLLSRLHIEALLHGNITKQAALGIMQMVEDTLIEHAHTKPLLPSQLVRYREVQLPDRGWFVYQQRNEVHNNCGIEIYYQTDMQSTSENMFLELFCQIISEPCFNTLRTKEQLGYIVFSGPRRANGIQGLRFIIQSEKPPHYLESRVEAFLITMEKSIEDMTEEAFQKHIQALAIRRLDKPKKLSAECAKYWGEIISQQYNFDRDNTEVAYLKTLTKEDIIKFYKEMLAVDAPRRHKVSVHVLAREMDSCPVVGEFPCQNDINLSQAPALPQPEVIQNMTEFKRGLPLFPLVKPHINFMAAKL

Keap1/Nrf2 = Keap1/Nrf2 (Homo sapiens, UniProt Q14145); assay: Keap1-Nrf2 protein-protein interaction inhibitors, dose response, biochemical, fluorescence polarization, cherry-picked samples (AID 588683)
Insulin-degrading enzyme [15] = biological target: T3, Insulin-degrading enzyme; assay: activators of endogenous IDE in HEK cells, dose response, cell-based, fluorescence polarization (AID 588439); assay type: functional
HEK293 [16] = assay: HEK cell cytotoxicity by LDH release, dose response, cytotoxicity control for IDE activator project, fluorescence, HEK cells (AID 588440); assay type: functional, cell-based; conditions: Homo sapiens;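 also: cytotoxicity by LDH release measuring loss of membrane integrity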
HEK293 [17] = assay: optical interference in Abeta FP readout, dose response, artefact control for IDE activator project, biochemical, fluorescence polarization (AID 588442); assay type: functional, cell-based; conditions: Homo sapiens
[18] = biological target: Long-chain-fatty-acid--AMP ligase FadD28 (Mycobacterium tuberculosis, UniProt P9WQ59); assay: Fluorescence polarization aasay to screen for inhibitors that compete for the binding of FadD28 to a bisubstrate Measured in Biochemical System Using Plate Reader - 2147-01_Inhibitor_Dose_CherryPick_Activity.; assay type: functional, Mycobacterium tuberculosis H37Rv
Mu-type opioid receptor = Mu-type opioid receptor (Homo sapiens, UniProt P35372); assay type: functional, cell-based;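 also: U2OS cells with beta-arrestin recruitment to OPRM1 by beta-gal complementation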
[19] = biological target: 5-hydroxytryptamine receptor 2A (Mus musculus, UniProt P35363); assay type: functional, cell-based;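 also: CHO-K1 cells with tagged receptor and beta-arrestin; agonist potency measured as compound-induced activation of the receptor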
[20] = biological target: Potassium channel subfamily K member 9 (Homo sapiens, UniProt Q9NPC2); assay: TASK3 (KCNK9) channel inhibitors, thallium flux, SAR follow-up, selectivity assay for TASK1 inhibitor project, cell-based, FluxOR thallium flux, concentration-response (AID 652211); assay type: functional;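 also: potency is for inhibitors of the channel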
cells [21] = assay type: functional, cell-based; remark: listed apart in the source
cells [22] = assay type: functional, cell-based; remark: listed apart in the source
[23] = cytotoxicity in HEK-293T cells, dose response, cytotoxicity control for TCR NF-kB inhibitor project, luminescence, T-cell screen hits (AID 489026); assay type: functional, cell-based;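 also: cells exposed to compound about 14 hours before the viability readout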
[24] = biological target: T4, Heat shock factor protein 1 (Mus musculus, UniProt P38532); assay: HSF1 potentiators in luciferase reporter cells, confirmation, cell-based, NIH3T3, luminescence, dose retest (AID 435004); assay type: functional;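 also: stress induced by proteasome inhibitor MG132 added 30 min after compound; luciferase reporter driven by HSF1 response element in NIH3T3 cells; actives raise luminescence as potentiators of the MG132 stress response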
T4 sequence (P38532 whole entry): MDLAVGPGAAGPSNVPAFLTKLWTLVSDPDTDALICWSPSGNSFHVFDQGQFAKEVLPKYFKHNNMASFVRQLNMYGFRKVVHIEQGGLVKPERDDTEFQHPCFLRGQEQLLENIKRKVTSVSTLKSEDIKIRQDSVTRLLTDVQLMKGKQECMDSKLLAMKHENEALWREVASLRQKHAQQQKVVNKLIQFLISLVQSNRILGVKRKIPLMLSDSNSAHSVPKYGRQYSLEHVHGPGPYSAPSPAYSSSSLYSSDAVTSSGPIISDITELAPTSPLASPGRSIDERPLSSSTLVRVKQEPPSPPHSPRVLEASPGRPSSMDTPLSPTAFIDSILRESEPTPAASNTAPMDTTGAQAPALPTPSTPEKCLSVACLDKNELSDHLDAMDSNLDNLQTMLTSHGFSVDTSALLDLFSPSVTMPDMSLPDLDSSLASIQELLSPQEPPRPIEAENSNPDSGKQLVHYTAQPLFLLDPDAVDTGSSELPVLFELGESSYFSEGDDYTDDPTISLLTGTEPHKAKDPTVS

BJ = assay: cytotoxicity toward Ras-transformed BJeLR fibroblasts, dose response, cell-based, alamar blue fluorescence, cherrypicked samples (AID 2631); assay type: functional; conditions: Homo sapiens;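 also: confirmatory dose-response assay in RAS-dependent BJ fibroblasts engineered with TERT, LT and ST, with cytotoxicity read by fluorescence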
INS1 = assay: beta cell apoptosis inhibitors, cytokine rescue, dose response, luminescence, retest (AID 449756); assay type: functional, cell-based; conditions: Rattus norvegicus;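 also: cell death triggered by IL-1 beta plus TNF-alpha plus IFN-gamma mixture; protective hits raise ATP signal compared with cytokine alone wells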
P388/ADR = assay: cells; assay type: functional; conditions: Mus musculus
SN12K1 = assay: cells; assay type: functional; conditions: Homo sapiens
P388 = assay: cells; assay type: functional; conditions: Mus musculus
[25] = inhibitors of HIV Env-driven cell fusion, dose response, cherry-pick (AID 652057); assay type: functional, cell-based
[26] = CEM21 lymphoblast cell cytotoxicity, dose response, cytotoxicity control for viral fusion inhibitor project, CellTiter-Glo luminescence, cherry-picked (AID 652042); assay type: functional, cell-based;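 also: potency for signal decrease meaning cytotoxicity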
[27] = ZM109 Env clade C HIV-1 fusion inhibitors, dose response, HeLa effector, CEM target cells, luciferase, cherry-pick (AID 652058); assay type: functional, cell-based
Paired box protein Pax-8 = Paired box protein Pax-8 (Homo sapiens, UniProt Q06710); assay: inhibitors of PAX8-driven TPO luciferase reporter, dose response, RMG-I cells, cherry-pick (AID 687027); assay type: functional, cell-based;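 also: luciferase reporter driven by Pax8 target thyroperoxidase promoter measured by SteadyGlo luminescence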
[28] = off-target signal loss in HeLa-CEM21 co-culture – HeLa F-luc CTL cells, cherry-picked, counter-screen for HIV-1 Env fusion inhibitor project, dose response (AID 652040); assay type: functional, cell-based;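 also: potency for signal decrease marking cytotoxic or nonspecific inhibition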
[29] = inhibitors of clade B AD8 Env fusion, dose response, cell-based, cherry-pick (AID 652062); assay type: functional;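 also: luciferase signal from cell-cell fusion driven by HIV-1 clade B AD8 Env; potency is for inhibitors of fusion seen as a drop in luminescence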

Sequence of Photoreceptor-specific nuclear receptor (Q9Y5X4 whole entry, the tested form may be a part): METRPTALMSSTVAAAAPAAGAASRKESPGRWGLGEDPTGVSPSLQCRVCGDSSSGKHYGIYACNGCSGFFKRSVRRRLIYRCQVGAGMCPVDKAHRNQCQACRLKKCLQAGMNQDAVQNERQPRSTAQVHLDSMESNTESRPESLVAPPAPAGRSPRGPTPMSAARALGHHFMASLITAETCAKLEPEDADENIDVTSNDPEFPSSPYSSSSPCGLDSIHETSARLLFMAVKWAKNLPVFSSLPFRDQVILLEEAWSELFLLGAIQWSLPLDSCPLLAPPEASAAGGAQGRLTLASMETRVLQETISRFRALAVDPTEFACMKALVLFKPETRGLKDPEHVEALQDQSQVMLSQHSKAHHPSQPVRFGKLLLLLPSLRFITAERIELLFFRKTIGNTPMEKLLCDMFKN
T2 sequence (Q00975 whole entry): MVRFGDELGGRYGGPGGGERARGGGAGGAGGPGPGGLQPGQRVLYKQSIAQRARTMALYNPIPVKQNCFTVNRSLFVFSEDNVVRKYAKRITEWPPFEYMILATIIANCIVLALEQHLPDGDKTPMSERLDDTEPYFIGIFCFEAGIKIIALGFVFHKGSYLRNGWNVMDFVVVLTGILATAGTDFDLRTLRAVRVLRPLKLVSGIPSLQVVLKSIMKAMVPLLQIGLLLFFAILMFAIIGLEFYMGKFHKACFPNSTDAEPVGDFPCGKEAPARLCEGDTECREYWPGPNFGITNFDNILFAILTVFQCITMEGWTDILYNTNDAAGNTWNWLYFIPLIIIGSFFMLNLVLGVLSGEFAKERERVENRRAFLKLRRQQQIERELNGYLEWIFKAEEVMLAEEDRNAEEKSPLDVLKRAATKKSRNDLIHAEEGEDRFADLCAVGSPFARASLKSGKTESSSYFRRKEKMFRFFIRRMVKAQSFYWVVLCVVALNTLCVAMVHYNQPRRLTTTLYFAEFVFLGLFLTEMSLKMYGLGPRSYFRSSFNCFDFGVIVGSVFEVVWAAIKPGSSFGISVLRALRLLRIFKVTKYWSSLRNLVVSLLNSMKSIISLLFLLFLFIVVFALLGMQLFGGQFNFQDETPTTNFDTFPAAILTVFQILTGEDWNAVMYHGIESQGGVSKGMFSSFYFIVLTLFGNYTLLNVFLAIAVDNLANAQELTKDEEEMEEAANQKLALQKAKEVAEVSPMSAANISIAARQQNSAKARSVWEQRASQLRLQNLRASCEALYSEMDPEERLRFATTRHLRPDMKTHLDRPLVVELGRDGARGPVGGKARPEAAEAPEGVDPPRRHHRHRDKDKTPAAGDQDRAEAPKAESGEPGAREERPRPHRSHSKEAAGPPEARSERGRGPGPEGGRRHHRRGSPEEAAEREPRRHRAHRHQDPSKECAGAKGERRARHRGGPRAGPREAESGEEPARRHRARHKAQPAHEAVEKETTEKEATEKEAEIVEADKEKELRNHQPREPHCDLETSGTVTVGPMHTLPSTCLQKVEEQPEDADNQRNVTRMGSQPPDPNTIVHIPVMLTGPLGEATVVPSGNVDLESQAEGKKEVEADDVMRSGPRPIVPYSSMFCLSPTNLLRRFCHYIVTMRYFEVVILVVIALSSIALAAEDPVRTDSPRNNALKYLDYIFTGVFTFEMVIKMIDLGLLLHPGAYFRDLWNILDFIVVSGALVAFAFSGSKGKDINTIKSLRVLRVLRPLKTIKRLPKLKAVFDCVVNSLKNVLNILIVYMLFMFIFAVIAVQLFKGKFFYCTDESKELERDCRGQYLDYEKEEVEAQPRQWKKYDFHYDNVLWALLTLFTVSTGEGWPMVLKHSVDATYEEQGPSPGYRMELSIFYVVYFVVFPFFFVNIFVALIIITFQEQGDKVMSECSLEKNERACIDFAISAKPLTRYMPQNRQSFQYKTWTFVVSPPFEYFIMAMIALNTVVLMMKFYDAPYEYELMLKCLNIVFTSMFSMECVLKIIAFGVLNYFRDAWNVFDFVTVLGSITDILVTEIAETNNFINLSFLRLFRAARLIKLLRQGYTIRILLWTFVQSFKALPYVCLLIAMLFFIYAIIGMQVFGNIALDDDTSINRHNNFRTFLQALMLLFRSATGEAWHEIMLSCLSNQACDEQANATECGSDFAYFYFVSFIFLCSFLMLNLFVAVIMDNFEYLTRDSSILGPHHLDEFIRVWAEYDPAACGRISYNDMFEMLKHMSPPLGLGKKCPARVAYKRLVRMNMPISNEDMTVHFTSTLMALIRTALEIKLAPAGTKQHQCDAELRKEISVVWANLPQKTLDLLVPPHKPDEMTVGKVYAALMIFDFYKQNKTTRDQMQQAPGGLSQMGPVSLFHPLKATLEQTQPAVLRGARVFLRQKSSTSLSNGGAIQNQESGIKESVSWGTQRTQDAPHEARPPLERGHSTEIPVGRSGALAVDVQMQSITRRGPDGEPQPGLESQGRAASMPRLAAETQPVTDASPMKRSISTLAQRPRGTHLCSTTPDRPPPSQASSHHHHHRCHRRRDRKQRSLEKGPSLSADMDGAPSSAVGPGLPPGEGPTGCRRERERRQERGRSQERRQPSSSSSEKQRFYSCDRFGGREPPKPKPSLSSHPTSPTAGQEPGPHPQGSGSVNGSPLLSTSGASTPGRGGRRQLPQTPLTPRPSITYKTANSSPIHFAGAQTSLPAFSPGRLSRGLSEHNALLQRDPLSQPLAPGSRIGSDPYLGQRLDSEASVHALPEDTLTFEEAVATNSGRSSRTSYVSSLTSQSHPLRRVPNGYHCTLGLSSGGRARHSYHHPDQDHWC
T2 sequence (Q02410 whole entry): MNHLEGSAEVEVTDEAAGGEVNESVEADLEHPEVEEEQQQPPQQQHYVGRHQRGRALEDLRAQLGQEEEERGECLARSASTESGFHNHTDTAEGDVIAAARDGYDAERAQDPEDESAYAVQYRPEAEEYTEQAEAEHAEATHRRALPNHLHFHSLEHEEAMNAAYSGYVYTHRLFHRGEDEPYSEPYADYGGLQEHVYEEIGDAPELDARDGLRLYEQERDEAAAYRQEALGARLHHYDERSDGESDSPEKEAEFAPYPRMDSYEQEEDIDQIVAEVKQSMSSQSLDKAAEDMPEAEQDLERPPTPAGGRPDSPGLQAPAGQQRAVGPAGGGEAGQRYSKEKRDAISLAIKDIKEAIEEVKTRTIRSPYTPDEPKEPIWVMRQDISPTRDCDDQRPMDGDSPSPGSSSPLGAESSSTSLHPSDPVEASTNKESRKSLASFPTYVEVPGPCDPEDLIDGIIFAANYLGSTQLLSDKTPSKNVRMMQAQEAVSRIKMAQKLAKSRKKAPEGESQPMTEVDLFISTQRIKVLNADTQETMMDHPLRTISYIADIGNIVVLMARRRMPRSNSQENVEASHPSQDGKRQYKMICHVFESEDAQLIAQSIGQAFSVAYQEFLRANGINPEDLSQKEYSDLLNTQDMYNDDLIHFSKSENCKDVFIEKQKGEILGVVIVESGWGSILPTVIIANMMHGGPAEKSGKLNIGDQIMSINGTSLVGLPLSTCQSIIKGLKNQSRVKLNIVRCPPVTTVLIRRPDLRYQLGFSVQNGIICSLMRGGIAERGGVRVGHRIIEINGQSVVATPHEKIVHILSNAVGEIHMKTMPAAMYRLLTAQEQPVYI
Sequence of 5-hydroxytryptamine receptor 2A (P35363 whole entry): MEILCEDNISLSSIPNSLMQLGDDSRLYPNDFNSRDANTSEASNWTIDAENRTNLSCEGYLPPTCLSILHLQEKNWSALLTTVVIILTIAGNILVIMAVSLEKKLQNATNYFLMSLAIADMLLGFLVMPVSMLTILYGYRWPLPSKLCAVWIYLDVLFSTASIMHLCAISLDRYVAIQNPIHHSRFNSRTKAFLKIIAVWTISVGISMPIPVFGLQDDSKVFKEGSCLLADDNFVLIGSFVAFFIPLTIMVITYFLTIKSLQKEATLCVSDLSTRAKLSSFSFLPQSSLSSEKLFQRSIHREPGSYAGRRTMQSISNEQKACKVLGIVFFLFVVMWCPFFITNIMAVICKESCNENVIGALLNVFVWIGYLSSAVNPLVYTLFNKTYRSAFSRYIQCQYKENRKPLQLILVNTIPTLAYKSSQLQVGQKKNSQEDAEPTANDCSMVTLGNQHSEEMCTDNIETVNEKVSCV
Sequence of Beta-lactamase (Salmonella choleraesuis (strain SC-B67), UniProt Q5J463) (Q5J463 whole entry): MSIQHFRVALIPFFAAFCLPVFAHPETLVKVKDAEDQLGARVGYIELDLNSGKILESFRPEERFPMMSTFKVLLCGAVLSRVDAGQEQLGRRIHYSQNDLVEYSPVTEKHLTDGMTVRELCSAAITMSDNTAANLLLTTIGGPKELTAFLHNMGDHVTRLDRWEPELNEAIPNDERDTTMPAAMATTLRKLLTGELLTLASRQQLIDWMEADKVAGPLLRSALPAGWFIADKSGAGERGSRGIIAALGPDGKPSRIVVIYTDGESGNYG
Sequence of Long-chain-fatty-acid--AMP ligase FadD28 (P9WQ59 whole entry): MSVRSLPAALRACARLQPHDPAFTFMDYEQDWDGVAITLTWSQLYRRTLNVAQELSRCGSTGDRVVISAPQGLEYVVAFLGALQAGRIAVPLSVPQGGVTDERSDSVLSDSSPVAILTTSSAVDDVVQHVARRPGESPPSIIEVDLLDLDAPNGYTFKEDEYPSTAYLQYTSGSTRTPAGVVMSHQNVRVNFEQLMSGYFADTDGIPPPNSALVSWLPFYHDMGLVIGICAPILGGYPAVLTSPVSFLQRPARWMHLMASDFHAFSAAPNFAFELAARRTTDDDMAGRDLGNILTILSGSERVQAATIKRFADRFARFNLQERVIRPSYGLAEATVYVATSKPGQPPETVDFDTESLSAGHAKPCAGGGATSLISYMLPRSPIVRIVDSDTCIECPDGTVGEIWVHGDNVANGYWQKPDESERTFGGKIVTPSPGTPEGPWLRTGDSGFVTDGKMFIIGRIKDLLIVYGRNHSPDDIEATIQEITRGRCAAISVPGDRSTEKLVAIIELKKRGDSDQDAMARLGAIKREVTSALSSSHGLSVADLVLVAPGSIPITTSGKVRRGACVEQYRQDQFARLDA

Compound: Cc1nn(Cc2c(F)c(F)c(F)c(F)c2F)c(C)c1NC(=O)c1ccc(COc2ccccc2Cl)cc1
- EC50 [1]: > 29.9 µM (inactive)
- IC50 [2]: > 29.9 µM (inactive)

Compound: Cc1cc2cc(C#N)c(SCC(=O)Nc3nonc3C)nc2cc1C
- AC50 [3]: 34.9 µM (active)

Compound: O=C(COc1ccccc1)Nc1ccc(N2CCN(C(=O)c3cccs3)CC2)cc1
- AC50 (Vero): 35.4 µM (active)

Compound: O=C(c1ccco1)c1cn(Cc2ccccc2Cl)c2ccccc12
- AC50 [4]: 9.08 µM (active)

Compound: Cc1ccnc(NC(=O)Cc2ccc(-c3ccccc3)cc2)c1
- IC50 [5]: 0.741 µM (active)
- IC50 (cells [6]): > 67.5 µM (inactive)
- IC50 [7]: > 67.5 µM (inactive)
- EC50 [8]: > 67.5 µM (inactive)
- EC50 (cells [9]): > 67.5 µM (inactive)

Compound: COCCN1C(=S)N[C@@H](c2ccccc2)C(C(=O)OC)=C1C
- AC50 (Cryptococcus neoformans): > 84 µM (inactive)

Compound: O=C1c2cccc3c(O)ccc(c23)C(=O)N1Cc1ccco1
- IC50 [10]: 9.17 µM (active)
- IC50 [11]: > 50 µM (inactive)
- IC50 (Beta-lactamase [12]): 14.1 µM (inactive)
- IC50 (Beta-lactamase [13]): 7.5 µM (active)
- AC50 (ORF 73): 0.966 µM (active)
- EC50 (Insulin-degrading enzyme [14]): > 54.7 µM (inactive)
- AC50 (Keap1/Nrf2): 1.5 µM (active)
- EC50 (Insulin-degrading enzyme [15]): > 54.7 µM (inactive)
- IC50 (HEK293 [16]): > 89.3 µM (inactive)
- EC50 (HEK293 [17]): > 54.7 µM (inactive)

Compound: Cc1cccc(NC(=O)Cn2c(=O)oc3ccccc32)n1
- AC50 [18]: 27.9 µM (active)

Compound: CN1C[C@H](CO)C[C@@H]2c3cccc4[nH]cc(c34)C[C@H]21
- EC50 (Mu-type opioid receptor): 92.5 µM (inactive)
- EC50 [19]: 0.0819 µM (active)

Compound: CCOc1ccccc1C(=O)Nc1cccc(NC(=O)c2ccccc2OC)c1
- IC50 [20]: 1.98 µM (active)

Compound: CC[C@@]1(O)C(=O)OCc2c1cc1n(c2=O)Cc2cc3c(N)cccc3nc2-1 [9-AMINOCAMPTOTHECIN]
- EC50 (cells [21]): > 350 µM (not active)
- EC50 (cells [22]): > 350 µM (not active)
- IC50 [23]: > 80 µM (inactive)
- EC50 [24]: > 260 µM (inconclusive)
- EC50 (BJ): 0.00718 µM (active)
- AC50 (INS1): 2.13 µM (active)
- GI50 (P388/ADR): < 0.0174 µM (active)
- GI50 (SN12K1): < 0.0227 µM (active)
- GI50 (P388): < 0.0119 µM (active)
- IC50 [5]: 0.896 µM (active)
- AC50 [25]: < 0.26 µM (active)
- AC50 [26]: 2.47 µM (active)
- AC50 [27]: 0.463 µM (active)
- AC50 (Paired box protein Pax-8): < 0.26 µM (active)
- AC50 [28]: < 0.26 µM (active)
- AC50 [29]: 0.348 µM (active)

From ChEMBL document CHEMBL1201862, “PubChem BioAssay data set” (2004)
